Measurements reported in ChEMBL document CHEMBL1201862, “PubChem BioAssay data set” (2004).
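The compound was tested at five concentrations on cells cultured in 96-well plates, with a 48-hour exposure period. GI50 = concentration required for 50% inhibition of growth.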 Activity calls are given as the source filed them. Cut-off read from the data, not from the text of the source: active = GI50 up to about 1.1 µM and inactive = higher.

Tests used:
Test in all cases: NCI anticancer screen, dose series, 48 h
MDA-MB-231 = tested on: MDA-MB-231
TK-10 = tested on: TK-10
HCC 2998 = tested on: HCC 2998
EKVX = tested on: EKVX
UO-31 = tested on: UO-31
PC-3 = tested on: PC-3
SK-MEL-5 = tested on: SK-MEL-5
OVCAR-8 = tested on: OVCAR-8
SR = tested on: SR
HT-29 = tested on: HT-29
IGROV-1 = tested on: IGROV-1
A498 = tested on: A498
K562 = tested on: K562
HOP-62 = tested on: HOP-62
DU-145 = tested on: DU-145
LOX IMVI = tested on: LOX IMVI
CCRF-CEM = tested on: CCRF-CEM
OVCAR-3 = tested on: OVCAR-3
NCI-H460 = tested on: NCI-H460

Measured: GI50

Cc1ccc(O)c(C(c2cccc(C(c3cc(C)ccc3O)c3cc(C)ccc3O)c2)c2cc(C)ccc2O)c1
inactive: MDA-MB-231 1.25 µM | TK-10 1.82 µM | HCC 2998 1.86 µM | EKVX 1.82 µM | UO-31 1.91 µM | PC-3 1.77 µM | SK-MEL-5 2.44 µM | OVCAR-8 2 µM | SR 2.73 µM | HT-29 1.66 µM | IGROV-1 1.56 µM | A498 1.53 µM | K562 1.81 µM | HOP-62 2.06 µM | DU-145 1.44 µM | LOX IMVI 1.54 µM | CCRF-CEM 2.38 µM | OVCAR-3 2.21 µM

Cc1nc2c(O)cc3c4c([nH]c3c2nc1C)C(=O)CCC4
inactive: MDA-MB-231 7.45 µM | TK-10 3.4 µM | HCC 2998 1.71 µM | EKVX 6.37 µM | UO-31 14.3 µM | PC-3 3.61 µM | SK-MEL-5 4.76 µM | OVCAR-8 2.65 µM | SR 2.36 µM | HT-29 1.52 µM | A498 19.5 µM | K562 5.06 µM | HOP-62 5.89 µM | DU-145 1.99 µM | LOX IMVI 2.29 µM | CCRF-CEM 4.07 µM | NCI-H460 3.51 µM | OVCAR-3 2.61 µM

CC(=O)OC[C@@H](OC(C)=O)[C@H](OC(C)=O)[C@@H]1OC(C)(C)O[C@@H]1C1SCCCS1
inactive: MDA-MB-231 > 100 µM | TK-10 > 100 µM | HCC 2998 > 100 µM | EKVX > 100 µM | UO-31 > 100 µM | PC-3 > 100 µM | SK-MEL-5 > 100 µM | OVCAR-8 > 100 µM | SR > 100 µM | A498 > 100 µM | K562 > 100 µM | HOP-62 > 100 µM | DU-145 > 100 µM | LOX IMVI > 100 µM | CCRF-CEM > 100 µM | NCI-H460 > 100 µM | OVCAR-3 > 100 µM

CC1CC[C@@]2(OC1)OC1C[C@H]3[C@@H]4C/C(=N\N(C)C)[C@@]5(O)CC(O)CC[C@]5(C)[C@H]4CC[C@]3(C)C1[C@@H]2C (stereo partly specified)
inactive: MDA-MB-231 52.1 µM | TK-10 48.9 µM | HCC 2998 68.5 µM | UO-31 55.5 µM | PC-3 33.7 µM | SK-MEL-5 42 µM | SR 22.5 µM | HT-29 20 µM | IGROV-1 89.1 µM | A498 34.7 µM | K562 38.7 µM | HOP-62 41.3 µM | DU-145 > 100 µM | LOX IMVI 42.5 µM | CCRF-CEM 31.3 µM | NCI-H460 45.9 µM | OVCAR-3 43.9 µM

COC(=O)C1(SC)C2CCC3C2CCC31 (stereo unspecified)
inactive: MDA-MB-231 > 100 µM | HCC 2998 > 100 µM | EKVX > 100 µM | UO-31 > 100 µM | PC-3 > 100 µM | SK-MEL-5 > 100 µM | OVCAR-8 > 100 µM | SR > 100 µM | IGROV-1 > 100 µM | A498 > 100 µM | K562 > 100 µM | HOP-62 > 100 µM | DU-145 > 100 µM | LOX IMVI > 100 µM | CCRF-CEM > 100 µM | NCI-H460 > 100 µM | OVCAR-3 > 100 µM

CCOC(=O)c1cc(C2CCN(CC(C)CC)C2=S)c(C(=O)/C=C(/C)N)[nH]1 (stereo unspecified)
inactive: MDA-MB-231 > 50 µM | TK-10 > 50 µM | EKVX > 50 µM | UO-31 > 50 µM | PC-3 > 50 µM | SK-MEL-5 > 50 µM | OVCAR-8 > 50 µM | SR > 50 µM | HT-29 > 50 µM | IGROV-1 > 50 µM | A498 > 50 µM | K562 > 50 µM | HOP-62 > 50 µM | DU-145 > 50 µM | LOX IMVI > 50 µM | CCRF-CEM > 50 µM | NCI-H460 > 50 µM | OVCAR-3 > 50 µM

COc1ccc(/N=N/c2ccc3oc(=O)c(C(=O)Nc4ccc(Cl)cc4)cc3c2)cc1
inactive: MDA-MB-231 6.25 µM | TK-10 > 10 µM | HCC 2998 > 10 µM | EKVX 6.15 µM | UO-31 2.24 µM | PC-3 2.56 µM | SK-MEL-5 > 10 µM | OVCAR-8 > 10 µM | SR 2.38 µM | HT-29 > 10 µM | IGROV-1 3.52 µM | A498 > 10 µM | HOP-62 > 10 µM | DU-145 > 10 µM | LOX IMVI 9.95 µM | NCI-H460 > 10 µM | OVCAR-3 7.28 µM

COc1cc(Cc2cnc(N)nc2N)cc(OC)c1OCCCNc1ccc([N+](=O)[O-])cc1
inactive: MDA-MB-231 12.9 µM | TK-10 14.3 µM | HCC 2998 14.5 µM | EKVX 15.3 µM | UO-31 12.4 µM | PC-3 10.1 µM | SK-MEL-5 5.79 µM | OVCAR-8 14.3 µM | SR 4.68 µM | HT-29 2.92 µM | IGROV-1 12.5 µM | A498 14.9 µM | K562 8.69 µM | HOP-62 13.6 µM | DU-145 15.8 µM | CCRF-CEM 9.35 µM | NCI-H460 7.48 µM | OVCAR-3 14.5 µM

COC(=O)c1cc(C#N)[nH]c1-c1ccsc1
inactive: MDA-MB-231 > 100 µM | TK-10 > 100 µM | HCC 2998 > 100 µM | EKVX 74.8 µM | UO-31 46.3 µM | PC-3 > 100 µM | SK-MEL-5 > 100 µM | OVCAR-8 > 100 µM | SR 29.9 µM | HT-29 > 100 µM | IGROV-1 > 100 µM | A498 95.5 µM | K562 53.1 µM | HOP-62 > 100 µM | DU-145 > 100 µM | LOX IMVI > 100 µM | CCRF-CEM 76.2 µM | OVCAR-3 > 100 µM

CC(=O)C1=CN=C2C(=O)N(c3ccccc3)N(C)C12C (stereo unspecified)
inactive: MDA-MB-231 > 100 µM | TK-10 49.9 µM | HCC 2998 16.9 µM | EKVX > 100 µM | UO-31 > 100 µM | PC-3 > 100 µM | SK-MEL-5 > 100 µM | OVCAR-8 > 100 µM | SR > 100 µM | IGROV-1 > 100 µM | A498 > 100 µM | K562 > 100 µM | DU-145 > 100 µM | LOX IMVI > 100 µM | CCRF-CEM > 100 µM | OVCAR-3 > 100 µM

COc1ccc(S(=O)(=O)O)cc1-n1nc(C(=O)Nc2ccccc2)n[n+]1-c1cc(S(=O)(=O)[O-])ccc1OC
inactive: MDA-MB-231 > 100 µM | TK-10 > 100 µM | HCC 2998 > 100 µM | EKVX > 100 µM | UO-31 > 100 µM | PC-3 > 100 µM | SK-MEL-5 > 100 µM | SR > 100 µM | HT-29 > 100 µM | IGROV-1 > 100 µM | A498 > 100 µM | K562 > 100 µM | HOP-62 > 100 µM | DU-145 > 100 µM | CCRF-CEM > 100 µM | NCI-H460 > 100 µM | OVCAR-3 > 100 µM
